Measured values published in ChEMBL document CHEMBL4359849, “Bioisosteric ferrocenyl aminoquinoline-benzimidazole hybrids: Antimicrobial evaluation and mechanistic insights” (Eur J Med Chem, 2019).

Legend:
CHO = assay: Cytotoxicity against CHO cells measured after 48 hrs by MTT assay; type: cell-based; conditions: Cricetulus griseus
Plasmodium falciparum [1] = assay: Antiplasmodial activity against chloroquine-sensitive asexual blood stage of Plasmodium falciparum NF54 by LDH assay; type: functional, organism-based
Plasmodium falciparum [2] = assay: Antiplasmodial activity against chloroquine-resistant asexual blood stage of Plasmodium falciparum K1 by LDH assay; type: functional, organism-based
[3] = Resistance index, ratio of IC50 for chloroquine-resistant asexual blood stage of Plasmodium falciparum K1 to IC50 for chloroquine-sensitive asexual blood stage of Plasmodium falciparum NF54; type: functional
[4] = Selectivity index, ratio of IC50 for CHO cells to IC50 for chloroquine-sensitive asexual blood stage of Plasmodium falciparum NF54; type: toxicity; conditions: hamster, read-out: Ratio IC50
[5] = Selectivity index, ratio of IC50 for CHO cells to IC50 for chloroquine-resistant asexual blood stage of Plasmodium falciparum K1; type: toxicity; conditions: hamster, read-out: Ratio IC50
Hemozoin [6] = assay: Inhibition of beta-hematin formation assessed as reduction in hemozoin formation incubated for 16 hrs by NP40 detergent-mediated assay
Hemozoin [7] = assay: Potency index, ratio of chloroquine IC50 to compound IC50 for inhibition of beta-hematin assessed as hemozoin formation
Plasmodium berghei [8] = assay: Antimalarial activity against GFP-transfected Plasmodium berghei ANKA infected mouse assessed as reduction in parasitemia at 50 mg/kg, po consecutively at 4, 24, 48 and 72 hrs post infection by flow cytometry relative to control; type: functional
Plasmodium berghei [9] = assay: Antimalarial activity against GFP-transfected Plasmodium berghei ANKA infected in mouse assessed as mean survival days at 50 mg/kg, po administered consecutively at 4, 24, 48 and 72 hrs post infection; type: functional
[10] = test system: Mycobacterium tuberculosis; assay: Antimycobacterial activity against Mycobacterium tuberculosis H37Rv after 14 days in presence of middlebrook 7H9/ADC medium by broth microdilution method; type: functional; conditions: 336 h
[11] = test system: Mycobacterium tuberculosis; assay: Antimycobacterial activity against Mycobacterium tuberculosis H37Rv after 14 days in presence of middlebrook 7H9/CAS medium by broth microdilution method; type: functional; conditions: 336 h
[12] = test system: Mycobacterium tuberculosis; assay: Antimycobacterial activity against Mycobacterium tuberculosis H37Rv after 7 days in presence of middlebrook 7H9/ADC medium by microplate alamar blue assay; type: functional; conditions: 168 h
[13] = test system: Mycobacterium tuberculosis; assay: Antimycobacterial activity against Mycobacterium tuberculosis H37Rv after 7 days in presence of middlebrook 7H9/CAS medium by microplate alamar blue assay; type: functional; conditions: 168 h

`FC(F)(F)c1ccc2c(c1)nc(-c1ccccc1)n2CCCNc1ccnc2cc(Cl)ccc12` gave an IC50 (CHO) of 16200 nM, an IC50 (Plasmodium falciparum [1]) of 431 nM and an IC50 (Plasmodium falciparum [2]) of 151 nM. The Ratio IC50 [3] was 0.35, the selectivity ratio [4] was 37.5 and the selectivity ratio [5] was 107. The IC50 (Hemozoin [6]) was 16000 nM, the Ratio IC50 (Hemozoin [7]) was 4 and the inhibition in vivo at 50 mg/kg (Plasmodium berghei [8]) was 58%. It also gave an MSD (Plasmodium berghei [9]) of 7 days, an MIC90 [10] of 62.5 µM and an MIC90 [11] of 15.6 µM. It also gave an MIC90 [12] of 89.1 µM and an MIC90 [13] of 15.8 µM.
`CCN(CC)CCCC(C)Nc1ccnc2cc(Cl)ccc12` (centres undefined) [CHLOROQUINE] gave an IC50 (Hemozoin [6]) of 74000 nM.
With `CS(=O)(=O)c1ccc2c(c1)nc(-c1ccccc1)n2CCCNc1ccnc2cc(Cl)ccc12` the IC50 (CHO) was 40900 nM, the IC50 (Plasmodium falciparum [1]) was 559 nM and the IC50 (Plasmodium falciparum [2]) was 1830 nM. For the same compound, the Ratio IC50 [3] was 3.28, the selectivity ratio [4] was 73.2 and the selectivity ratio [5] was 22.4. For the same compound, the MIC90 [10] was > 125 µM, the MIC90 [11] was 125 µM and the MIC90 [12] was > 62.5 µM. For the same compound, the MIC90 [13] was > 125 µM.
For `CO[C@H]1/C=C/O[C@@]2(C)Oc3c(C)c(O)c4c(O)c(c(/C=N/N5CCN(C)CC5)c(O)c4c3C2=O)NC(=O)/C(C)=C\C=C\[C@H](C)[C@H](O)[C@@H](C)[C@@H](O)[C@@H](C)[C@H](OC(C)=O)[C@@H]1C` [RIFAMPIN], the MIC90 [10] was 0.018 µM, the MIC90 [11] was 0.018 µM and the MIC90 [12] was 0.0156 µM. The MIC90 [13] was 0.0217 µM.
In the case of `Clc1ccc2c(NCCCn3c(-c4ccccc4)nc4ccccc43)ccnc2c1`, the IC50 (CHO) is reported as 42000 nM, the IC50 (Plasmodium falciparum [1]) is reported as 5550 nM and the IC50 (Plasmodium falciparum [2]) is reported as 201 nM. The Ratio IC50 [3] was 0.0362, the selectivity ratio [4] was 7.57 and the selectivity ratio [5] was 209. The MIC90 [10] was 125 µM, the MIC90 [11] was 62.5 µM and the MIC90 [12] was 38.8 µM. The MIC90 [13] was 50.6 µM.
Work on `N#Cc1ccc2c(c1)nc(-c1ccccc1)n2CCCNc1ccnc2cc(Cl)ccc12` yielded an IC50 (CHO) of 38900 nM, an IC50 (Plasmodium falciparum [1]) of 975 nM and an IC50 (Plasmodium falciparum [2]) of 179 nM. It also gave a Ratio IC50 [3] of 0.183, a selectivity ratio [4] of 39.9 and a selectivity ratio [5] of 217. For the same compound, the MIC90 [10] was > 125 µM, the MIC90 [11] was 62.5 µM and the MIC90 [12] was > 62.5 µM. For the same compound, the MIC90 [13] was > 125 µM.
In the case of `Cc1ccc2c(c1)nc(-c1ccccc1)n2CCCNc1ccnc2cc(Cl)ccc12`, the IC50 (CHO) is reported as > 50000 nM, the IC50 (Plasmodium falciparum [1]) is reported as 784 nM and the IC50 (Plasmodium falciparum [2]) is reported as 457 nM. The Ratio IC50 [3] was 0.583, the MIC90 [10] was 125 µM and the MIC90 [11] was 31.2 µM. The MIC90 [12] was > 62.5 µM and the MIC90 [13] was 32.7 µM.
In the case of `CC[C@H]1CN2CCc3cc(OC)c(OC)cc3[C@@H]2C[C@@H]1C[C@H]1NCCc2cc(OC)c(OC)cc21` [EMETINE], the IC50 (CHO) is reported as 16.2 nM.
`C[C@H]1[C@H](OC(=O)CCC(=O)O)O[C@@H]2O[C@@]3(C)CC[C@H]4[C@H](C)CC[C@@H]1[C@@]24OO3` [ARTESUNATE] showed an IC50 (Plasmodium falciparum [1]) of 9.8 nM.
